This is an account of results in US20120172361A1, “TRIAZINE DERIVATIVES AND THEIR THERAPEUTICAL APPLICATIONS” (CALIFORNIA CAPITAL EQUITY, LLC, priority 2009, published 2012).

Each structure is given as a SMILES string. Where only a bound is given, the exact number is not on record here.

The assay addresses T1, Aurora-A(h) (Homo sapiens, UniProt O14965).
T1 construct: purchased Millipore (KinaseProfiler service); also Reaction Biology Corp. (Kinase Hotspot)
T1 sequence (O14965 1-403): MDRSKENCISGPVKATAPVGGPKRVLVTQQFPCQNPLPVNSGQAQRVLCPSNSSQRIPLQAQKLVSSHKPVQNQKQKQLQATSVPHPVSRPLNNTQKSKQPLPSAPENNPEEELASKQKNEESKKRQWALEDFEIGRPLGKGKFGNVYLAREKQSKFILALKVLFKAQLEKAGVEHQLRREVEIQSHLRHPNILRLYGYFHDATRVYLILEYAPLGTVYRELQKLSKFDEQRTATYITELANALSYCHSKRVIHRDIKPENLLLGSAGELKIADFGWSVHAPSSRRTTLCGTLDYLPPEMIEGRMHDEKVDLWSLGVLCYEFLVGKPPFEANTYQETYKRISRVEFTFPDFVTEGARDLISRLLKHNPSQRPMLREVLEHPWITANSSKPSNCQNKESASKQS
Kind of assay: Aurora-A kinase assay (KinaseProfiler Service Assay Protocols, Millipore; also Kinase Hotspot, Reaction Biology Corp.). The class given is biochemical. The note with it: compound concentration 1 μM. As for the experimental part: This example illustrated Aurora Kinase Assays of selected Compounds from this invention (referred to Daniele Fancelli et al, J. Med. Chem., 2006, 49 (24), pp 7247-7251). The KinaseProfiler™ Service Assay Protocols (Millipore) were used to test the kinase inhibiting activity of novel compounds from this invention. To do this, the buffer composition was as: 20 mM MOPS, 1 mM EDTA, 0.01% Brij-35, 5% Glycerol, 0.1% β-mercaptoethanol, 1 mg/mL BSA. Test compounds were initially dissolved in DMSO at the desired concentration, then serially diluted to the kinase assay buffer. In a final reaction volume of 25 μL, Aurora-A(h) (5-10 mU) is incubated with 8 mM MOPS pH 7.0, 0.2 mM EDTA, 200 μM LRRASLG (Kemptide), 10 mM MgAcetate and [γ33P-ATP]. The reaction was initiated by the addition of the MgATP mix. After incubation for 40 minute at room temperature, the reaction was stopped by addition of 5 μL of a 3% phosphoric acid solution. 10 μL of the reaction was then spotted onto a P30 filtermat and washed three times for 5 minutes in 50 mM phosphoric acid and once in methanol prior to drying and scintillation counting. Wells containing substrate but no kinase and wells containing a phosphopeptide control were used to set 0% and 100% phosphorylation value, respectively.
Also Kinase Hotspot SM kinase assay was used to test the compounds for IC50 or % inhibitions (Reaction Biology Corp.). Inhibitor IC50 values were determined by titration of compound at the optimal kinase concentration (Kinase EC50).
Turning to `Cc1cc(Nc2nc(Sc3ccc(NC(=O)C4CC4)cc3)nc(N3CCN(C)CC3)n2)n[nH]1` [Example 2], the inhibition (as a rule, the relative decrease from the control value, in per cent) at 1 µM is over 90%.
For `CCc1nc(Nc2cc(C)[nH]n2)nc(Sc2ccc(NC(=O)C3CC3)cc2)n1` [Example 4], the inhibition at 1 µM was over 90%.
In turn, `Cc1cc(Nc2nc(Sc3ccc(NC(=O)C4CC4)cc3)nc(C3CC3)n2)n[nH]1` [Example 6] registered an inhibition at 1 µM of over 90%.
The value for `CN1CCN(c2nc(Nc3nc[nH]n3)nc(Sc3ccc(NC(=O)C4CC4)cc3)n2)CC1` [Example 8] was under 50%; that for `CN1CCN(c2nc(Nc3nc4ccccc4[nH]3)nc(Sc3ccc(NC(=O)C4CC4)cc3)n2)CC1` [Example 9] was over 50%.
As for `Cc1cnc(Nc2nc(Sc3ccc(NC(=O)C4CC4)cc3)nc(N3CCN(C)CC3)n2)s1` [Example 10], the inhibition at 1 µM is over 90%.
The value for `CN1CCN(c2nc(Nc3nncs3)nc(Sc3ccc(NC(=O)C4CC4)cc3)n2)CC1` [Example 11] was under 50%; that for `Cc1cc(Nc2nc(Sc3ccc(NC(=O)C4CC4)cc3)nc(N3CCN(c4ccncc4)CC3)n2)n[nH]1` [Example 12] was over 90%.
Turning to `CCc1nc(Nc2cc(C)[nH]n2)nc(N2CCN(c3ccncc3)CC2)n1` [Example 13], the inhibition at 1 µM is over 50%.
`O=C(Nc1ccc(Sc2nc(Nc3ncc[nH]3)nc(-c3ccccc3)n2)cc1)C1CC1` [Example 16] gave an inhibition at 1 µM of under 50%.
The value for `Cc1cnc(Nc2nc(Sc3ccc(NC(=O)C4CC4)cc3)nc(N3CCN(CCO)CC3)n2)s1` [Example 19] was over 90%; that for `Cc1cnc(Nc2nc(Sc3ccc(NC(=O)C4CC4)cc3)nc(N3CCN(c4ccncc4)CC3)n2)s1` [Example 20] was over 90%.
For `Cc1cnc(Nc2nc(Sc3ccc(NC(=O)C4CC4)cc3)nc(N3CCOCC3)n2)s1` [Example 21] the value was over 90%; for `CCOC(=O)c1cc(Nc2nc(Sc3ccc(NC(=O)C4CC4)cc3)nc(N3CCN(C)CC3)n2)n[nH]1` [Example 30], over 90%; for `Cc1cnc(Nc2nc(NCCCN3CCOCC3)nc(Sc3ccc(NC(=O)C4CC4)cc3)n2)s1` [Example 38], over 90%.
Compound `Cc1cnc(Nc2nc(NCCN(C)C)nc(Sc3ccc(NC(=O)C4CC4)cc3)n2)s1` [Example 39] returned an inhibition at 1 µM of over 90%.
The value for `Cc1cnc(Nc2nc(Sc3ccc(NC(=O)C4CC4)cc3)nc(N(C)CCN(C)C)n2)s1` [Example 40] was over 50%.
As to `CCCCNc1nc(Nc2ncc(C)s2)nc(Sc2ccc(NC(=O)C3CC3)cc2)n1` [Example 41], the inhibition at 1 µM is under 50%.
`CCN(CC)c1nc(Nc2ncc(C)s2)nc(Sc2ccc(NC(=O)C3CC3)cc2)n1` [Example 42] had an inhibition at 1 µM of over 50%.
For `Cc1cnc(Nc2nc(Sc3ccc(NC(=O)C4CC4)cc3)nc(N3CCCCC3)n2)s1` [Example 44], the inhibition at 1 µM is over 50%.
`Cc1cc(Nc2nc(Sc3ccc(N)cc3)nc(C3CC3)n2)n[nH]1` [Example 45] had an inhibition at 1 µM of over 50%.
As to `Cc1cnc(Nc2nc(N3CCN(C)CC3)nc(N3CCN(C)CC3)n2)s1` [Example 47], the inhibition at 1 µM is under 50%.
For `Cc1cnc(Nc2nc(Sc3ccc(N)cc3)nc(N3CCN(C)CC3)n2)s1` [Example 48] the value was over 50%; for `Cc1cnc(Nc2nc(Sc3cccc(N)c3)nc(N3CCN(C)CC3)n2)s1` [Example 49], over 50%; for `CN1CCN(c2nc(Nc3ncc(Cl)s3)nc(Sc3ccc(NC(=O)C4CC4)cc3)n2)CC1` [Example 50], over 90%.
In the case of `CC(C)c1cnc(Nc2nc(Sc3ccc(NC(=O)C4CC4)cc3)nc(N3CCN(C)CC3)n2)s1` [Example 52], the inhibition at 1 µM was over 90%.
As to `CN1CCN(c2nc(Nc3cc(C4CC4)[nH]n3)nc(Sc3ccc(NC(=O)C4CC4)cc3)n2)CC1` [Example 53], the inhibition at 1 µM was over 90%.
Turning to `CN1CCN(c2nc(Nc3cc(C(C)(C)C)[nH]n3)nc(Sc3ccc(NC(=O)C4CC4)cc3)n2)CC1` [Example 54], the inhibition at 1 µM is over 50%.
`CN1CCN(c2nc(Nc3cc(C4CCC4)[nH]n3)nc(Sc3ccc(NC(=O)C4CC4)cc3)n2)CC1` [Example 55] gave an inhibition at 1 µM of over 90%.
With `CC(C)c1cc(Nc2nc(Sc3ccc(NC(=O)C4CC4)cc3)nc(N3CCN(C)CC3)n2)n[nH]1` [Example 56], the inhibition at 1 µM was over 50%.
Take `CCCc1cc(Nc2nc(Sc3ccc(NC(=O)C4CC4)cc3)nc(N3CCN(C)CC3)n2)n[nH]1` [Example 57]: the inhibition at 1 µM was under 50%.
Regarding `CCc1nc(Nc2ncc(C)s2)nc(Sc2ccc(NC(=O)C3CC3)cc2)n1` [Example 58], the inhibition at 1 µM is under 50%.
For the compound `Cc1cnc(Nc2nc(Sc3ccc(NC(=O)C4CC4)cc3)nc(C3CC3)n2)s1` [Example 59], the inhibition at 1 µM was over 50%.
`CN1CCN(c2nc(Nc3nccs3)nc(Sc3ccc(NC(=O)C4CC4)cc3)n2)CC1` [Example 60] yielded an inhibition at 1 µM of under 50%.
For `Cc1nc(Nc2nc(Sc3ccc(NC(=O)C4CC4)cc3)nc(N3CCN(C)CC3)n2)sc1C` [Example 61] the value was under 50%.
`Cc1csc(Nc2nc(Sc3ccc(NC(=O)C4CC4)cc3)nc(N3CCN(C)CC3)n2)n1` [Example 64] returned an inhibition at 1 µM of under 50%.
The compound `Cc1cn(-c2nc(Sc3ccc(NC(=O)C(C)C)cc3)nc(N3CCN(C)CC3)n2)c(=N)s1` [Example 66] yielded an inhibition at 1 µM of under 50%.
On to `CC(=O)Nc1ccc(Sc2nc(N3CCN(C)CC3)nc(-n3cc(C)sc3=N)n2)cc1` [Example 67], for which the inhibition at 1 µM was under 50%.
For `CC(=O)Nc1ccc(Sc2nc(CC(C)C)nc(-n3cc(C)sc3=N)n2)cc1` [Example 69] the value was under 50%; for `Cc1cn(-c2nc(Sc3ccc(NC(=O)C4CC4)cc3)nc(N3CCN(C)CC3)n2)c(=N)s1` [Example 70], under 50%; for `Cc1cnc(Nc2nc(Sc3ccc(NC(=O)C(C)C)cc3)nc(N3CCN(C)CC3)n2)s1` [Example 71], over 90%.
As for `CC(=O)Nc1ccc(Sc2nc(CC(C)C)nc(Nc3ncc(C)s3)n2)cc1` [Example 72], the inhibition at 1 µM is under 50%.
For the compound `CC(=O)Nc1ccc(Sc2nc(Nc3ncc(C)s3)nc(N3CCN(C)CC3)n2)cc1` [Example 73], the inhibition at 1 µM is over 90%.
In turn, `CCc1nc(Nc2ncc(C)s2)nc(N2CCN(C)CC2)n1` [Example 75] had an inhibition at 1 µM of under 50%.
In turn, `Cc1cc(Nc2nc(Sc3ccc(NC(=O)C4CC4)cc3)nc(N3CCN(C)CC3)n2)on1` [Example 76] returned an inhibition at 1 µM of over 50%.
In turn, `Cc1nnc(Nc2nc(Sc3ccc(NC(=O)C4CC4)cc3)nc(N3CCN(C)CC3)n2)s1` [Example 77] gave an inhibition at 1 µM of under 50%.
For `Cc1cc(Nc2nc(Sc3ccc(NC(=O)C4CC4)cc3)nc(N3CCN(C)CC3)n2)sn1` [Example 78], the inhibition at 1 µM was under 50%.
In the case of `CC(C)C(=O)Nc1ccc(Sc2nc(Nc3cc(C4CC4)[nH]n3)nc(C3CC3)n2)cc1` [Example 79], the inhibition at 1 µM was over 90%.
The compound `CCC(=O)Nc1ccc(Sc2nc(Nc3cc(C4CC4)[nH]n3)nc(C3CC3)n2)cc1` [Example 81] came in with an inhibition at 1 µM of over 90%.
Regarding `CCC(=O)Nc1ccc(Sc2nc(Nc3cc(C)[nH]n3)nc(C3CC3)n2)cc1` [Example 82], the inhibition at 1 µM is over 90%.
Compound `CCC(=O)Nc1ccc(Sc2nc(CC)nc(Nc3cc(C)[nH]n3)n2)cc1` [Example 83] registered an inhibition at 1 µM of over 90%.
`CCC(=O)Nc1ccc(Sc2nc(CC)nc(Nc3cc(C4CC4)[nH]n3)n2)cc1` [Example 84] came in with an inhibition at 1 µM of over 90%.
`CCC(=O)Nc1ccc(Sc2nc(C)nc(Nc3cc(C)[nH]n3)n2)cc1` [Example 86] showed an inhibition at 1 µM of over 90%.
`CCC(=O)Nc1ccc(Sc2nc(C)nc(Nc3cc(C4CC4)[nH]n3)n2)cc1` [Example 87]: the inhibition at 1 µM was over 90%.
In turn, `Cc1cc(Nc2nc(Sc3ccc(NC(=O)C4CC4)cc3)nc(N3CCOCC3)n2)n[nH]1` [Example 88] yielded an inhibition at 1 µM of over 90%.
In turn, `Cc1cc(Nc2nc(Sc3ccc(NC(=O)C4CC4)cc3)nc(N3CCCC3)n2)n[nH]1` [Example 89] came in with an inhibition at 1 µM of over 90%.
Compound `Cc1cc(Nc2nc(NCCCN3CCOCC3)nc(Sc3ccc(NC(=O)C4CC4)cc3)n2)n[nH]1` [Example 90] gave an inhibition at 1 µM of over 90%.
In turn, `Cc1cc(Nc2nc(NCCN(C)C)nc(Sc3ccc(NC(=O)C4CC4)cc3)n2)n[nH]1` [Example 91] had an inhibition at 1 µM of over 90%.
On to `Cc1cc(Nc2nc(Sc3ccc(NC(=O)C4CC4)cc3)nc(N(C)CCN(C)C)n2)n[nH]1` [Example 92], for which the inhibition at 1 µM was over 50%.
